Patent US20060020021A1, “Use of compounds derived from 2,3-dehydronaringenin for the treatment of inflammatory processes and pharmaceutical composition containing said derivatives” (FURFURAL ESPANOL, S.A., priority 2004, published 2006)

Legend:
[1] = system: paw edema in mice induced by carragenin; assay: Microscopic study and assessment of the injected plantar pad (edema, inflammatory infiltrate, degree 0-3); assay type: in vivo, male Swiss albino mice; settings: treated group, 24 hours post-inoculation, 70 mg/kg i.p.
Experimental: The plantar pad area injected was extirpated at 24 hours post-inoculation; fixed in 10% buffered neutral formaldehyde, included in paraffin by the standard method, sectioned at 3 μm and stained with hematoxilin-eosin for its optical study which was carried out by two observers. The presence of edema and polynuclear neutrophils and monocytes was measured, being assessed as 0 (absence), 1 (slight), 2 (moderate) and 3 (intense) (FIGS. 3 to 6b).

[2] = system: paw edema in mice induced by carragenin; assay: Test of paw edema in mice induced by carragenin (paw volume); assay type: in vivo, male Swiss albino mice; settings: 70 mg/kg intraperitoneally 1 h before intradermal carragenin; significant at 1 h (p<0.025), 5 h (p<0.005), 24 h (p<0.0005)
Experimental: The anti-inflammatory capacity of the product of Formula (I), wherein R is a potassium cation, was tested: [drawing 3] in male Swiss albino mice of 8 to 10 weeks of age (38-44 g), from the Servicio de Animales de Laboratorio (Laboratory Animals Department) of the University of Murcia. The animals were maintained under standard conditions (temperature of 22±2° C., humidity 60±4% and light/dark cycle of 12 hours) with food and drink ad libitum. The animals were anesthetized with ether in the moment of inducing inflammation and during the measurements of the volume of the paw. Test of Paw Edema in Mice Induced by Carragenin
The inflammation was caused by intradermal injection of 0.05 ml of 1% Lambda Carrageenan (Sigma-Aldrich, Madrid, Spain) in saline solution in the plantar pad of the right hind paw. The measurement of the edema was carried out with a digital calibrator (Proinsa, Vitoria, Spain), measuring the 3 largest diameters of the paw for the volume calculation. The measurements were carried out in triplicate. The volume of the paw was measured immediately before (0 hours) and at 1, 5 and 24 hours after causing inflammation. The compound of Formula (I) was dissolved in sterile saline solution and intraperitoneally administered (70 mg/kg) 1 h before causing inflammation. […] Groups of 10 animals were used. […]

## O=c1cc(-c2ccc(O)cc2)oc2cc(O)cc(O)c12 [2,3-DHNA, 2,3-dehydronaringenin]
[1]
  samples with moderate inflammation (degree 2): 13.3%
  samples with neither edema nor inflammatory infiltrate (degree 0): 60%
  samples with slight inflammation (degree 1): 26.65%
[2]
  Increases in the volume of inoculated paw, treated group vs control group: lower in the treated group than in the control group
